31 compounds from US12421222B2 (AUGUSTINE THERAPEUTICS, priority 2021, dated 2025) can be followed below.

The experiment deals with acetylated tubulin (Lys40) in HeLa cells. Nature of the experiment: Acetylated α-tubulin measurement in vitro (immunocytochemistry). The settings on record: Homo sapiens, 6 hours incubation, acetylated tubulin (Lys40) by immunocytochemistry, read-out: IC50 (Tubulin deacetylation). It counts as cell-based. Summed up:
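HeLa cells in serum-free medium treated 6 h at 37 °C (final DMSO 0.1–0.4%), then PFA-fixed and immunostained for acetyl-Lys40 and total α-tubulin; high-content imaging.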

As for `Cc1nc(SCC(=O)c2ccc(CNC(=O)CO)s2)c2c(F)c(Cl)ccc2n1` [Example 146, N-((5-(2-((6-chloro-5-fluoro-2-methylquinazolin-4-yl)thio)acetyl)thiophen-2-yl)methyl)-2-hydroxyacetamide], the IC50 fell in the range of 0.1 to 0.5 µM. The value for `COc1cc(C(F)(F)F)cc2c(SCC(=O)c3ccc(CNC(=O)CO)s3)nc(C)nc12` [Example 148, 2-hydroxy-N-((5-(2-((8-methoxy-2-methyl-6-(trifluoromethyl)quinazolin-4-yl)thio)acetyl)thiophen-2-yl)methyl)acetamide] was no more than 0.1 µM; that for `Cc1nc(SCC(=O)c2ccc(CNC(=O)CO)s2)c2cc(N(C)C)ncc2n1` [Example 149, N-((5-(2-((6-(dimethylamino)-2-methylpyrido[3,4-d]pyrimidin-4-yl)thio)acetyl)thiophen-2-yl)methyl)-2-hydroxyacetamide] was no more than 0.1 µM. `Cc1nc(SCC(=O)c2ccc(CNC(=O)CO)s2)c2cc(C(F)(F)F)cc(N(C)C)c2n1` [Example 150, N-((5-(2-((8-(dimethylamino)-2-methyl-6-(trifluoromethyl)quinazolin-4-yl)thio)acetyl)thiophen-2-yl)methyl)-2-hydroxyacetamide]: the IC50 was 0.1 to 0.5 µM. For `CNc1cc(C(F)(F)F)cc2c(SCC(=O)c3ccc(CNC(=O)CO)s3)nc(C)nc12` [Example 151, 2-hydroxy-N-((5-(2-((2-methyl-8-(methylamino)-6-(trifluoromethyl)quinazolin-4-yl)thio)acetyl)thiophen-2-yl)methyl)acetamide], the IC50 is 1 to 3.33 µM.

With `O=C(CO)NCc1ccc(C(=O)CSc2nc(C(F)(F)F)nc3cccnc23)s1` [Example 152, 2-hydroxy-N-((5-(2-((2-(trifluoromethyl)pyrido[3,2-d]pyrimidin-4-yl)thio)acetyl)thiophen-2-yl)methyl)acetamide], the IC50 is no more than 0.1 µM. The value for `Cc1nc(SCC(=O)c2ccc(CNC(=O)CO)s2)c2ncccc2n1` [Example 153, 2-hydroxy-N-((5-(2-((2-methylpyrido[3,2-d]pyrimidin-4-yl)thio)acetyl)thiophen-2-yl)methyl)acetamide] was no more than 0.1 µM. The value for `COc1cc2c(SCC(=O)c3ccc(CNC(=O)CO)s3)nc(C(F)(F)F)nc2cn1` [Example 154, 2-hydroxy-N-((5-(2-((6-methoxy-2-(trifluoromethyl)pyrido[3,4-d]pyrimidin-4-yl)thio)acetyl)thiophen-2-yl)methyl)acetamide] was no more than 0.1 µM. `O=C(CSc1nc(C(F)(F)F)nc2ncccc12)c1ccc(CN2CCCC2=O)s1` [Example 157, 1-((5-(2-((2-(trifluoromethyl)pyrido[2,3-d]pyrimidin-4-yl)thio)acetyl)thiophen-2-yl)methyl)pyrrolidin-2-one]: the IC50 was no more than 0.1 µM. The value for `COc1ccc2nc(C)nc(SCC(=O)c3ccc(CNC(=O)CO)s3)c2c1F` [Example 158, N-((5-(2-((5-fluoro-6-methoxy-2-methylquinazolin-4-yl)thio)acetyl)thiophen-2-yl)methyl)-2-hydroxyacetamide] was 0.1 to 0.5 µM; that for `COc1cc2c(SCC(=O)c3ccc(CN(C)C(=O)CO)s3)nc(C(F)(F)F)nc2cn1` [Example 159, 2-hydroxy-N-((5-(2-((6-methoxy-2-(trifluoromethyl)pyrido[3,4-d]pyrimidin-4-yl)thio)acetyl)thiophen-2-yl)methyl)-N-methylacetamide] was no more than 0.1 µM; that for `CCOc1cnc2nc(C)nc(SCC(=O)c3ccc(CNC(=O)CO)s3)c2c1` [Example 160, N-((5-(2-((6-ethoxy-2-methylpyrido[2,3-d]pyrimidin-4-yl)thio)acetyl)thiophen-2-yl)methyl)-2-hydroxyacetamide] was no more than 0.1 µM.

As to `COc1cnc2nc(C)nc(SCC(=O)c3ccc(CN4CCOCC4=O)s3)c2c1` [Example 161, 4-((5-(2-((6-methoxy-2-methylpyrido[2,3-d]pyrimidin-4-yl)thio)acetyl)thiophen-2-yl)methyl)morpholin-3-one], the IC50 is 0.1 to 0.5 µM. In the case of `COc1cnc2nc(C)nc(SCC(=O)c3ccc(CN(C)C(=O)CO)s3)c2c1` [Example 162, 2-hydroxy-N-((5-(2-((6-methoxy-2-methylpyrido[2,3-d]pyrimidin-4-yl)thio)acetyl)thiophen-2-yl)methyl)-N-methylacetamide] it was 0.1 to 0.5 µM.

With `COCC(=O)NCc1ccc(C(=O)CSc2nc(C)nc3ncc(OC)cc23)s1` [Example 163, 2-methoxy-N-((5-(2-((6-methoxy-2-methylpyrido[2,3-d]pyrimidin-4-yl)thio)acetyl)thiophen-2-yl)methyl)acetamide], the half-inhibitory concentration (IC50) is 0.1 to 0.5 µM. The value for `COc1cnc2nc(C(F)F)nc(SCC(=O)c3ccc(CNC(=O)CO)s3)c2c1` [Example 164, N-((5-(2-((2-(difluoromethyl)-6-methoxypyrido[2,3-d]pyrimidin-4-yl)thio)acetyl)thiophen-2-yl)methyl)-2-hydroxyacetamide] was no more than 0.1 µM; that for `COc1ccc2nc(C)nc(SCC(=O)c3ccc(CNC(=O)C4CCCO4)s3)c2c1` (stereo not shown) [Example 171, N-((5-(2-((6-methoxy-2-methylquinazolin-4-yl)thio)acetyl)thiophen-2-yl)methyl)tetrahydrofuran-2-carboxamide] was 0.1 to 0.5 µM; that for `COc1ccc2nc(C)nc(SCC(=O)c3ccc(CNC(=O)C(F)F)s3)c2c1` [Example 172, 2,2-difluoro-N-((5-(2-((6-methoxy-2-methylquinazolin-4-yl)thio)acetyl)thiophen-2-yl)methyl)acetamide] was 0.1 to 0.5 µM. Take `COc1ccc2nc(C)nc(SCC(=O)c3ccc(CNC(=O)CN)s3)c2c1` [Example 177, 2-amino-N-((5-(2-((6-methoxy-2-methylquinazolin-4-yl)thio)acetyl)thiophen-2-yl)methyl)acetamide]: the IC50 was no more than 0.1 µM.

In the case of `COc1ccc2nc(C)nc(SCC(=O)c3ccc(CNC(=O)C4CN(C)C4)s3)c2c1` [Example 178, N-((5-(2-((6-methoxy-2-methylquinazolin-4-yl)thio)acetyl)thiophen-2-yl)methyl)-1-methylazetidine-3-carboxamide], the concentration for half-maximal inhibition (IC50) was no more than 0.1 µM. Consider `O=C(CO)NCc1ccc(C(=O)CSc2nccc3ncccc23)s1` [Example 179, N-((5-(2-((1,6-naphthyridin-5-yl)thio)acetyl)thiophen-2-yl)methyl)-2-hydroxyacetamide], for which the IC50 is no more than 0.1 µM. In the case of `O=C(CO)NCc1ccc(C(=O)CSc2nccc3ccncc23)s1` [Example 180, N-((5-(2-((2,7-naphthyridin-1-yl)thio)acetyl)thiophen-2-yl)methyl)-2-hydroxyacetamide] it was 0.1 to 0.5 µM; in that of `O=C(CO)NCc1ccc(C(=O)CSc2nccn3cncc23)s1` [Example 181, 2-hydroxy-N-((5-(2-(imidazo[1,5-a]pyrazin-8-ylthio)acetyl)thiophen-2-yl)methyl)acetamide], 0.1 to 0.5 µM; in that of `O=C(CO)NCc1ccc(C(=O)CSc2nccn3nccc23)s1` [Example 182, 2-hydroxy-N-((5-(2-(pyrazolo[1,5-a]pyrazin-4-ylthio)acetyl)thiophen-2-yl)methyl)acetamide], 0.5 to 1 µM. For `CNCC(=O)NCc1ccc(C(=O)CSc2nc(C)nc3ccc(OC)cc23)s1` [Example 183, N-((5-(2-((6-methoxy-2-methylquinazolin-4-yl)thio)acetyl)thiophen-2-yl)methyl)-2-(methylamino)acetamide], the IC50 lay in the range of 0.1 to 0.5 µM. Turning to `COc1ccc2nc(C)nc(SCC(=O)c3ccc(CNC(=O)C4CCCN4)s3)c2c1` (stereo not shown) [Example 184, N-((5-(2-((6-methoxy-2-methylquinazolin-4-yl)thio)acetyl)thiophen-2-yl)methyl)pyrrolidine-2-carboxamide], the IC50 is 0.1 to 0.5 µM. In the case of `COc1ccc2nc(C)nc(SCC(=O)c3ccc(CNC(=O)[C@H](C)O)s3)c2c1` [Example 185, (S)-2-hydroxy-N-((5-(2-((6-methoxy-2-methylquinazolin-4-yl)thio)acetyl)thiophen-2-yl)methyl)propanamide] it was no more than 0.1 µM; in that of `COc1ccc2nc(C)nc(SCC(=O)c3ccc(CNC(=O)[C@@H](C)O)s3)c2c1` [Example 186, (R)-2-hydroxy-N-((5-(2-((6-methoxy-2-methylquinazolin-4-yl)thio)acetyl)thiophen-2-yl)methyl)propanamide], no more than 0.1 µM; in that of `COc1ccc2nc(C)nc(SCC(=O)c3ccc(CNC(=O)N(C)C)s3)c2c1` [Example 189, 3-((5-(2-((6-methoxy-2-methylquinazolin-4-yl)thio)acetyl)thiophen-2-yl)methyl)-1,1-dimethylurea], 0.1 to 0.5 µM.

For `COc1cnc2nc(C)nc(SCC(=O)c3ccc(CNC(=O)OC(C)(C)C)s3)c2c1` [Example 190, tert-butyl ((5-(2-((6-methoxy-2-methylpyrido[2,3-d]pyrimidin-4-yl)thio)acetyl)thiophen-2-yl)methyl)carbamate], the IC50 fell in the range of 0.1 to 0.5 µM. As for `Cc1nnc(SCC(=O)c2ccc(CNC(=O)C(C)(C)C)s2)c2ccccc12` [Example 194, N-((5-(2-((4-methylphthalazin-1-yl)thio)acetyl)thiophen-2-yl)methyl)pivalamide], the IC50 was 0.5 to 1 µM.

The term IC50 denotes the concentration needed to halve the response being measured.
